How the values were obtained:
Type in all cases: in vivo
soybean plant = experiment: Test Example 4: phytotoxicity to upland crop plants, treatment after emergence; conditions: dosage 5 kg/ha, sprayed after emergence, judged 14 days after treatment
Outline: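 Weeds and soybean grown in soil-filled vats to set leaf stages, then sprayed post-emergence with the compound at a prescribed concentration. Weed-killing rate and crop phytotoxicity judged 14 days after treatment.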

wheat = experiment: as above; conditions: dosage 5 kg/ha, sprayed after emergence, judged 14 days after treatment
Outline: (§1)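 Upland weeds and crop plants (soybean, wheat) are grown from seed in soil until they reach given leaf stages, then treated by spraying with the compound-containing agent; effects are judged two weeks later.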

[1] = test system: bulrush (Scirpus juncoides Roxb.); experiment: Test Example 1: herbicidal effect on paddy field weeds before emergence; conditions: Dosage 5 kg/ha
Outline: (§2)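 Soil in pots is brought to paddy state and seeded with barnyard grass and bulrush; before germination, the soil receives a predetermined dosage of test compound in solution. After twenty-one days, control rate relative to untreated pots is calculated and graded.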

[2] = test system: barnyard grass (Echinochloa crus-galli Beauv.); experiment: as above; conditions: Dosage 5 kg/ha
Outline: as §2

[3] = test system: cleavers (Galium aparine L.), Ga; experiment: Test Example 4: herbicidal effect on upland weeds after emergence; conditions: dosage 5 kg/ha; sprayed after emergence; judged 14 days after treatment
Outline: as §1

[4] = test system: forxtail grass (Alopecurus aequalis var. amurensis Ohwi), Am; experiment: as above; conditions: dosage 5 kg/ha; sprayed after emergence; judged 14 days after treatment
Outline: as §1

[5] = test system: cocklebur (Xanthium strumarium L.), Xs; experiment: as above; conditions: dosage 5 kg/ha; sprayed after emergence; judged 14 days after treatment
Outline: as §1

[6] = test system: barnyard grass (Echinochloa crus-galli Beauv.), Ec; experiment: as above; conditions: dosage 5 kg/ha; sprayed after emergence; judged 14 days after treatment
Outline: as §1

[7] = test system: bird's eye speedwell (Veronica persica Poir.), Vp; experiment: as above; conditions: dosage 5 kg/ha; sprayed after emergence; judged 14 days after treatment
Outline: as §1

[8] = test system: velvetleaf (Abutilon theophtasti L.), At; experiment: as above; conditions: dosage 5 kg/ha; sprayed after emergence; judged 14 days after treatment
Outline: as §1

[9] = test system: cleavers (Galium aparine L.), Ga; experiment: Test Example 3: herbicidal effect on upland weeds before emergence; conditions: dosage 5 kg/ha
Outline: (§3)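 Herbicidal activity was rated from kill rate determined 14 days post-spray, the compound having been applied pre-emergence as a liquid agent.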

[10] = test system: forxtail grass (Alopecurus aequalis var. amurensis Ohwi), Am; experiment: as above; conditions: foxtail grass, dosage 5 kg/ha
Outline: as §3

[11] = test system: cocklebur (Xanthium strumarium L.), Xs; experiment: as above; conditions: dosage 5 kg/ha
Outline: as §3

[12] = test system: barnyard grass (Echinochloa crus-galli Beauv.), Ec; experiment: as above; conditions: dosage 5 kg/ha
Outline: as §3

[13] = test system: bird's eye speedwell (Veronica persica Poir.), Vp; experiment: as above; conditions: dosage 5 kg/ha
Outline: as §3

[14] = test system: velvetleaf (Abutilon theophtasti L.), At; experiment: as above; conditions: dosage 5 kg/ha
Outline: as §3

[15] = test system: bulrush (Scirpus juncoides Roxb.); experiment: Test Example 2: herbicidal effect on paddy field weeds after emergence; conditions: Dosage 5 kg/ha; one-leaved stage; 21 days after treatment
Outline: (§4)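 Weeds in flooded paddy-soil pots were grown to the one-leaved stage, then the soil was treated with the compound solution at a set dosage.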

[16] = test system: monochoria (Monochoria vaginalis Presl); experiment: as above; conditions: Dosage 5 kg/ha; one-leaved stage; 21 days after treatment
Outline: as §4

[17] = test system: barnyard grass (Echinochloa crus-galli Beauv.); experiment: as above; conditions: Dosage 5 kg/ha; one-leaved stage; 21 days after treatment
Outline: as §4

wheat (Wh) = experiment: Test Example 3: phytotoxicity to upland crop plants, treatment before emergence; conditions: dosage 5 kg/ha
Outline: (§5)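 Crops treated before emergence with sprayed liquid preparation of compound (prescribed concentration). Day 14: phytotoxicity graded per criterion.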

soybean plant (So) = experiment: as above; conditions: dosage 5 kg/ha
Outline: as §5

Structure (SMILES)	Phytotoxicity So (soybean plant)	Phytotoxicity Wh (wheat)	Pre-emergence treatment Bulrush (herbicidal effect) [1]	Pre-emergence treatment Barnyard grass (herbicidal effect) [2]	Herbicidal effect Ga [3]	Herbicidal effect Am [4]	Herbicidal effect Xs [5]	Herbicidal effect Ec [6]	Herbicidal effect Vp [7]	Herbicidal effect At [8]	Herbicidal effect Ga [9]	Herbicidal effect Am [10]	Herbicidal effect Xs [11]	Herbicidal effect Ec [12]	Herbicidal effect Vp [13]	Herbicidal effect At [14]	Post-emergence treatment Bulrush (herbicidal effect) [15]	Post-emergence treatment Monochoria (herbicidal effect) [16]	Post-emergence treatment Barnyard grass (herbicidal effect) [17]	Phytotoxicity Wh (wheat (Wh))	further results
CCc1ccc(Cl)c(CC)c1NC(=O)c1cc2c(nc1C(=O)NC1CCCC1)SCCC2 [compound 519]	4 (Crop-killing rate is 90-99%.)	5 (Crop-killing rate is 100%.)	5 (Weed-killing rate is 100%.)	5 (Weed-killing rate is 100%.)	5 (Weed-killing rate is 100%.)	5 (Weed-killing rate is 100%.)	5 (Weed-killing rate is 100%.)	5 (Weed-killing rate is 100%.)	5 (Weed-killing rate is 100%.)	5 (Weed-killing rate is 100%.)	5 (Weed-killing rate is 100%.)	5 (Weed-killing rate is 100%.)	5 (Weed-killing rate is 100%.)	5 (Weed-killing rate is 100%.)	5 (Weed-killing rate is 100%.)	5 (Weed-killing rate is 100%.)	5 (Weed-killing rate is 100%.)	5 (Weed-killing rate is 100%.)	5 (Weed-killing rate is 100%.)	5 (Crop-killing rate is 100%.)	Phytotoxicity So (soybean plant (So)): 4 (Crop-killing rate is 90-99%.)
Cc1c(Cl)cccc1NC(=O)c1cc2c(nc1C(=O)NCC(C)C)SCCC2 [compound 527]	5 (Crop-killing rate is 100%.)	5 (Crop-killing rate is 100%.)	5 (Weed-killing rate is 100%.)	5 (Weed-killing rate is 100%.)	5 (Weed-killing rate is 100%.)	5 (Weed-killing rate is 100%.)	4 (Weed-killing rate is 90-99%.)	5 (Weed-killing rate is 100%.)	5 (Weed-killing rate is 100%.)	5 (Weed-killing rate is 100%.)	5 (Weed-killing rate is 100%.)	5 (Weed-killing rate is 100%.)	4 (Weed-killing rate is 90-99%.)	5 (Weed-killing rate is 100%.)	5 (Weed-killing rate is 100%.)	5 (Weed-killing rate is 100%.)	5 (Weed-killing rate is 100%.)	5 (Weed-killing rate is 100%.)	5 (Weed-killing rate is 100%.)	5 (Crop-killing rate is 100%.)	Phytotoxicity So (soybean plant (So)): 5 (Crop-killing rate is 100%.)
CCCNC(=O)c1nc2c(cc1C(=O)Nc1c(CC)ccc(Cl)c1CC)CCSC2 [compound 534]	4 (Crop-killing rate is 90-99%.)	4 (Crop-killing rate is 90-99%.)	5 (Weed-killing rate is 100%.)	5 (Weed-killing rate is 100%.)	5 (Weed-killing rate is 100%.)	5 (Weed-killing rate is 100%.)	5 (Weed-killing rate is 100%.)	5 (Weed-killing rate is 100%.)	5 (Weed-killing rate is 100%.)	5 (Weed-killing rate is 100%.)	5 (Weed-killing rate is 100%.)	5 (Weed-killing rate is 100%.)	5 (Weed-killing rate is 100%.)	5 (Weed-killing rate is 100%.)	5 (Weed-killing rate is 100%.)	5 (Weed-killing rate is 100%.)	5 (Weed-killing rate is 100%.)	5 (Weed-killing rate is 100%.)	5 (Weed-killing rate is 100%.)	4 (Crop-killing rate is 90-99%.)	Phytotoxicity So (soybean plant (So)): 3 (Crop-killing rate is 70-89%.)
CCCNC(=O)c1nc2c(cc1C(=O)Nc1c(CC)ccc(Cl)c1CC)CSCC2 [compound 558]	5 (Crop-killing rate is 100%.)	5 (Crop-killing rate is 100%.)	5 (Weed-killing rate is 100%.)	5 (Weed-killing rate is 100%.)	5 (Weed-killing rate is 100%.)	5 (Weed-killing rate is 100%.)	5 (Weed-killing rate is 100%.)	5 (Weed-killing rate is 100%.)	5 (Weed-killing rate is 100%.)	5 (Weed-killing rate is 100%.)	5 (Weed-killing rate is 100%.)	5 (Weed-killing rate is 100%.)	5 (Weed-killing rate is 100%.)	5 (Weed-killing rate is 100%.)	5 (Weed-killing rate is 100%.)	5 (Weed-killing rate is 100%.)	5 (Weed-killing rate is 100%.)	5 (Weed-killing rate is 100%.)	5 (Weed-killing rate is 100%.)	5 (Crop-killing rate is 100%.)	Phytotoxicity So (soybean plant (So)): 5 (Crop-killing rate is 100%.)
CCNC(=O)c1nc2occc2cc1C(=O)Nc1c(CC)ccc(Cl)c1CC [compound 774]	4 (Crop-killing rate is 90-99%.)	5 (Crop-killing rate is 100%.)	5 (Weed-killing rate is 100%.)	5 (Weed-killing rate is 100%.)	5 (Weed-killing rate is 100%.)	5 (Weed-killing rate is 100%.)	5 (Weed-killing rate is 100%.)	5 (Weed-killing rate is 100%.)	5 (Weed-killing rate is 100%.)	5 (Weed-killing rate is 100%.)	5 (Weed-killing rate is 100%.)	5 (Weed-killing rate is 100%.)	5 (Weed-killing rate is 100%.)	5 (Weed-killing rate is 100%.)	5 (Weed-killing rate is 100%.)	5 (Weed-killing rate is 100%.)	5 (Weed-killing rate is 100%.)	5 (Weed-killing rate is 100%.)	5 (Weed-killing rate is 100%.)	5 (Crop-killing rate is 100%.)	Phytotoxicity So (soybean plant (So)): 4 (Crop-killing rate is 90-99%.)
